Results taken from patent US8846645B2, “Cyclohexane compounds and their use as antibiotics” (Rheinische Friedrich-Wilhelms Universität Bonn, priority 2010, dated 2014).
Values belong to the compound of their own block, whether it stands above or below them.

Columns and labels:
[1] = system: glmS riboswitch of Staphylococcus aureus MU50; assay: metabolite-induced self-cleavage assay of the glmS riboswitch; assay type: biochemical
Protocol: The determination was performed using an in vitro preparation of the glmS riboswitch of Staphylococcus aureus MU50.
The glmS riboswitch DNA was amplified from genomic DNA of the S. aureus Mu50 strain (RKI Berlin) by standard Pfu polymerase chain reaction (PCR) using a 5′ primer containing the T7 promoter (GATAATACGACTCACTATAGGGCAGTTAAAGCGCCTGTGCAAATA, SEQ ID NO: 1) and a 3′ primer (ATCTTATTAACTTTGTCCATTAAGTCACCC, SEQ ID NO: 2) (20 cycles, annealing temperature of 60° C., homemade Pfu enzyme). The resultant of a 100 μl PCR reaction was phenol/chloroform extracted and precipitated using 3M NaOAc pH 5.4 and ethanol Pellets were resuspended in 10 μl diethylpyrocarbonate treated water (DEPC H2O) and used as template for T7 RNA polymerase-based transcription. […]
For this assay the following components were mixed to yield the stated final concentrations: cleavage buffer (50 mM Hepes pH 7.5, 200 mM KCl), MgCl2 (10 mM), glucosamine-6-phosphate (200 μM), glucosamine (GlcN) (200 μM), the compound according to formula (I) (200 μM) or the compound according to formula (3) (200 μM and 20 mM), radioactively labelled RNA (20 cps) and DEPC H2O ad 10 μl. […] The screens were read using a FujiFilm PhosphorImager FLA 3000 and evaluated using AIDA software.

[2] = system: Staphylococcus aureus SG511; assay: determination of the minimal inhibitory concentration in Staphylococcus aureus SG511; assay type: cell-based; conditions: 0.5× Mueller-Hinton media, 18-24 h, OD 600 nm; FIG. 3
Protocol: The determination of the minimal inhibitory concentration (MIC) of the compounds according to formula (I) (carba-GlcN6P) and formula (3) (carba-GlcN) was performed in clear, round bottom 96-well plates. For this 100 μl of 0.5× Mueller-Hinton media (Oxoid, 300 gm/litre dehydrated infusion from beef, 17.5 gm/litre casein hydrolysate, 1.5 gm/litre starch, pH 7.3) were put into the 12 wells. To the first well 100 μl of 320 mM solution of carba-GlcN were added, mixed by pipetting and 100 μl of this mixture were transferred into the next well etc., generating a sequence final dilutions from 160 mM to 0.08 mM. Finally, SG511 cells that had been grown to an optical density (OD600) of 1 were diluted in 0.5× Mueller-Hinton media 1:10 000. From this dilution 100 μl were added to the already prepared plate leading to a final compound concentration of 80 mM-0.04 mM. After incubation for 10 min at RT and vivid shaking, the 96-well plate was transferred to a 37° C. incubator. After 18-24 h of incubation the plate was read at 600 nm using a standard plate reader.

[3] = system: Staphylococcus aureus Mu50 cells; assay: synergistic effects with vancomycin treatment of S. aureus Mu50; assay type: cell-based; conditions: 0.0025 mM alone
Protocol: Before treatment, Staphylococcus aureus Mu50 cells (RKI Berlin) were grown in sterile, 15 ml flasks containing 5 ml of 2×CDM without glucose at 37° C. for 24 h under vigorous shaking.
For the determination of the growth inhibition 100 μl of 2×CDM containing 10 μM vancomycin were put into each of 12 wells. […] Finally, Mu50 cells that had been grown to an optical density (OD600) of 0.8 to 1 were diluted in 2×CDM to an optical density (OD600) of 0.2. From this dilution 100 μl were added to the already prepared plate leading to a final compound concentration of 80 mM, 40 mM, 20 mM, 10 mM, 5 mM, and 2.5 mM, a final concentration of 2.5 μM vancomycin and a final OD600 of 0.1 per well at the beginning of the measurement. The 96 well plate was incubated at 37° C. in a Tecan Sunrise plate reader, which tracks the optical density (OD600) in 10 minute intervals and automatically shakes the plate for one minute every two minutes. Minimal inhibitory concentration was read after 18 h to 24 h of incubation. Control cells were treated without compounds or with 2.5 μM vancomycin.

[4] = system: Staphylococcus aureus Mu50 cells; assay: growth inhibition in vancomycin intermediate resistant Staphylococcus aureus Mu50 in sugar free medium; assay type: cell-based
Protocol: For the preparation of 2× chemically defined medium (2×CDM), a minimal medium for Staphylococcus aureus without glucose, for the preparation of 500 ml the following components were mixed in individual groups before being combined:
After preparation of the individual groups, the groups I-IV were added to group V. The volume was adjusted to 480 ml with ddH2O. The pH was adjusted to 7 using HCl followed by adjusting the volume to the final 500 ml. Before storage at 4° C. the medium was sterile filtered.
The determination of the decrease in bacterial growth of Staphylococcus aureus Mu50 cells (RKI Berlin) depending on the concentration of the compound according to formula (3) (C GlcN) was performed in clear, sterile, round bottom 96-well plates with lid. Before treatment, the cells were grown in 2×CDM medium without glucose at 37° C. for 24 h under vigorous shaking.
For the determination of the growth inhibition 100 μl of 2×CDM were put into each of 12 wells. […] The 96 well plate was incubated at 37° C. in a Tecan Sunrise plate reader, which tracks the optical density (OD600) in 10 minute intervals and automatically shakes the plate for one minute every two minutes. Minimal inhibitory concentration was read after 18 h to 24 h of incubation. […]

EC50 ([1]; concentration dependent analysis, 37° C., 30 min): 3.61 ± 0.39 µM
Structure (SMILES): N[C@H]1C(O)O[C@H](COP(=O)(O)O)[C@@H](O)[C@@H]1O (stereo partly shown) [GlcN6P, glucosamine-6-phosphate, reference compound]

Structure (SMILES): N[C@@H]1[C@@H](O)[C@H](O)[C@@H](COP(=O)(O)O)C[C@@H]1O [formula (1), (1S,2S,3R,4R,5R)-2-amino-5-((phosphonooxy)methyl)-cyclohexane-1,3,4-triol]
bacterial growth of Staphylococcus aureus [2]: effectively inhibit the growth
activation of the glmS-riboswitch compared with the native metabolite ([1]; versus GlcN6P): almost the same potency

Structure (SMILES): CN[C@H](CC(C)C)C(=O)N[C@H]1C(=O)N[C@@H](CC(N)=O)C(=O)N[C@H]2C(=O)N[C@H]3C(=O)N[C@H](C(=O)N[C@H](C(=O)O)c4cc(O)cc(O)c4-c4cc3ccc4O)[C@H](O)c3ccc(c(Cl)c3)Oc3cc2cc(c3O[C@@H]2O[C@H](CO)[C@@H](O)[C@H](O)[C@H]2O[C@H]2C[C@](C)(N)[C@H](O)[C@H](C)O2)Oc2ccc(cc2Cl)[C@H]1O [vancomycin]
bacterial growth (OD600) compared to untreated cells ([3]; after 10 h, FIG. 5): no change in the bacterial growth
bacterial growth (OD600) compared to untreated cells ([3]; over 18 h of incubation, FIG. 6): no change in the bacterial growth

MIC ([4]; Staphylococcus aureus, MU50CELLS, 2×CDM without glucose, read after 18 h to 24 h, n=3, read-out: minimal inhibitory concentration (MIC)): 625 µM
Structure (SMILES): NC1C(O)CC(CO)C(O)C1O (stereo not shown) [formula (3), Carba-glucosamine]
concentration at which measureable growth inhibition started ([4]; sugar free medium, referring to control cells grown without compounds, FIG. 4): 0.156 mM
